IC50 data for ten compounds are collected here from patent US12221434B2, “Sulfonamide carboxamide compounds” (Inflazome Limited, priority 2017, dated 2025).

The target in experiment [1] is T1, NLRP3 (Homo sapiens, UniProt Q96P20). As to the kind of experiment: THP-1 cells pyroptosis assay (LPS + nigericin, resazurin read-out). The class given is cell-based. Also on record: Seed THP-1 cells (25,000 cells/well) containing 1.0 μg/ml LPS; host or cells: THP-1 cells, LPS-primed, nigericin-stimulated. Particulars: 1 μg/ml LPS, 5 μM nigericin, NLRP3 inhibitory activity. On the procedure:
THP-1 cells (ATCC #TIB-202) were grown in RPMI containing L-glutamine (Gibco #11835) supplemented with 1 mM sodium pyruvate (Sigma #S8636) and penicillin (100 units/ml)/streptomycin (0.1 mg/ml) (Sigma #P4333) in 10% Fetal Bovine Serum (FBS) (Sigma #F0804). The cells were routinely passaged and grown to confluency (˜10^6 cells/ml). On the day of the experiment, THP-1 cells were harvested and resuspended into RPMI medium (without FBS). The cells were then counted and viability (>90%) checked by Trypan blue (Sigma #T8154). Appropriate dilutions were made to give a concentration of 625,000 cells/ml. To this diluted cell solution was added LPS (Sigma #L4524) to give a 1 μg/ml Final Assay Concentration (FAC). 40 μl of the final preparation was aliquoted into each well of a 96-well plate. The plate thus prepared was used for compound screening.
The following method step-by-step assay was followed for compound screening. • 1. Seed THP-1 cells (25,000 cells/well) containing 1.0 μg/ml LPS in 40 μl of RPMI medium (without FBS) in 96-well, black walled, clear bottom cell culture plates coated with poly-D-lysine (VWR #734-0317) • 2. Add 5 μl compound (8 points half-log dilution, with 10 μM top dose) or vehicle (DMSO 0.1% FAC) to the appropriate wells • 3. Incubate for 3 hrs at 37° C. and 5% CO2 • 4. Add 5 μl nigericin (Sigma #N7143) (FAC 5 μM) to all wells • 5. Incubate for 1 hr at 37° C. and 5% CO2 • 6. At the end of the incubation period, spin plates at 300×g for 3 mins and remove supernatant • 7. Then add 50 μl of resazurin (Sigma #R7017) (FAC […] resazurin in RPMI medium without FBS) and incubate plates for a further 1-1.5 h at 37° C. and 5% CO2 • 8. Plates were read in an Envision reader at Ex 560 nm and Em 590 nm • 9. IC50 data is fitted to a non-linear regression equation (log inhibitor vs response-variable slope 4-parameters) 96-Well Plate Map
Background: Resazurin is reduced to fluorescent resorufin, in cell work by metabolically active cells.

For experiment [2], the target named is T1, NLRP3. The experiment can be described thus: Human whole blood IL1β release assay (LPS + nigericin, AlphaLisa IL-1β). The class given is cell-based. Also on record: Plate out 80 μl of whole blood containing 1 μg/ml of LPS; from tissue; host or cells: human whole blood from healthy donors (Li-heparin), LPS-primed, nigericin-stimulated. Particulars: 1 μg/ml LPS, 10 μM nigericin, IL-1β release, read-out: HWB IC50. As to the method: For systemic delivery, the ability to inhibit NLRP3 when the compounds are present within the bloodstream is of great importance. For this reason, the NLRP3 inhibitory activity of a number of compounds in human whole blood was investigated in accordance with the following protocol.
Human whole blood in Li-heparin tubes was obtained from healthy donors from a volunteer donor panel. • 1. Plate out 80 μl of whole blood containing 1 μg/ml of LPS in 96-well, clear bottom cell culture plate (Corning #3585) • 2. Add 10 μl compound (8 points half-log dilution with 10 μM top dose) or vehicle (DMSO 0.1% FAC) to the appropriate wells • 3. Incubate for 3 hrs at 37° C., 5% CO2 • 4. Add 10 μl nigericin (Sigma #N7143) (10 μM FAC) to all wells • 5. Incubate for 1 hr at 37° C., 5% CO2 • 6. At the end of the incubation period, spin plates at 300×g for 5 mins to pellet cells and remove 20 μl of supernatant and add to 96-well v-bottom plates for IL-1β analysis (note: these plates containing the supernatants can be stored at −80° C. to be analysed at a later date) • 7. IL-1β was measured according to the manufacturer protocol (Perkin Elmer-AlphaLisa IL-1 Kit AL220F-5000) • 8. IC50 data is fitted to a non-linear regression equation (log inhibitor vs response-variable slope 4-parameters)
(In Alpha technology, singlet oxygen from a donor bead excites a nearby acceptor bead.)

T1 sequence (Q96P20 whole entry): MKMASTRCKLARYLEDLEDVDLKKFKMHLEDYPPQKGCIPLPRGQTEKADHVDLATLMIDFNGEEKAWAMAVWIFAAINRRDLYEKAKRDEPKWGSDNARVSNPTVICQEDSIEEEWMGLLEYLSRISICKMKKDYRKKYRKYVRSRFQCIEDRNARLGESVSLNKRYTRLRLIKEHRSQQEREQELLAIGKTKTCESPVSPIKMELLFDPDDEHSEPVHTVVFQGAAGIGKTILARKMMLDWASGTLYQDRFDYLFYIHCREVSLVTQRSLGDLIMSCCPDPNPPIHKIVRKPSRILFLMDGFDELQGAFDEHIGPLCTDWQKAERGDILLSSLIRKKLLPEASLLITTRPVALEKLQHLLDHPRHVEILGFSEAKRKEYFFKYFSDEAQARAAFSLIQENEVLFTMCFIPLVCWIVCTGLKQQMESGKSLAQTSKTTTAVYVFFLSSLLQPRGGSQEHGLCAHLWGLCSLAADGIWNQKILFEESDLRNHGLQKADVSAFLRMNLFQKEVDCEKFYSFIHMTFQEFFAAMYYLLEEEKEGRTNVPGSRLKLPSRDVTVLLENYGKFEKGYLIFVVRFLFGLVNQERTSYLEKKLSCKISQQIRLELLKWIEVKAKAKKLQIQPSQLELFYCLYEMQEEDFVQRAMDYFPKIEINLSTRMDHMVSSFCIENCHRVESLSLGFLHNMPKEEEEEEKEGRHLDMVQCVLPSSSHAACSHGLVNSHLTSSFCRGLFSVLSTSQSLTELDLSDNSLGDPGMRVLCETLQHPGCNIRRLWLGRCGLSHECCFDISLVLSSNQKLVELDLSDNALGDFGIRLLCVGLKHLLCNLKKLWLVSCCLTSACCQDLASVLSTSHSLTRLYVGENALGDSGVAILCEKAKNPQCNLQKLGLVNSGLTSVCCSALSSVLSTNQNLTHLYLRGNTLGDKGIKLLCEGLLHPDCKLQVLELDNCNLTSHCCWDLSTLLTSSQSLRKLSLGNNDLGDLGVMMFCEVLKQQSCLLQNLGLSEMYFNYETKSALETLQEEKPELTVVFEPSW

For `O=C(Nc1c2c(cc3c1CCC3)CCC2)NS(=O)(=O)c1ccn(-c2ccccn2)n1` [Example 4, N-((1,2,3,5,6,7-Hexahydro-s-indacen-4-yl)carbamoyl)-1-(pyridin-2-yl)-1H-pyrazole-3-sulfonamide], the IC50 – broadly, the concentration that inhibits the measured activity by half – in experiment [1] fell in the range of 640 to 2560 nM.
For the compound `O=C(Nc1c2c(cc3c1CCC3)CCC2)NS(=O)(=O)c1ccn(-c2cccnc2)n1` [Example 6, N-((1,2,3,5,6,7-Hexahydro-s-indacen-4-yl)carbamoyl)-1-(pyridin-3-yl)-1H-pyrazole-3-sulfonamide], the IC50 in experiment [1] was in the range of 640 to 2560 nM.
With `O=C(Nc1c2c(cc3c1CCC3)CCC2)NS(=O)(=O)c1ccn(Cc2ncco2)n1` [Example 2, N-((1,2,3,5,6,7-Hexahydro-s-indacen-4-yl)carbamoyl)-1-(oxazol-2-ylmethyl)-1H-pyrazole-3-sulfonamide], the concentration for half-maximal inhibition (IC50) was 40 to 160 nM in experiment [1] and 3200 to 10000 nM in experiment [2].
For the compound `CN(Cc1nccn1C)C(=O)c1cc(S(=O)(=O)NC(=O)Nc2c3c(cc4c2CCC4)CCC3)nn1C` [Example 8, 3-(N-((1,2,3,5,6,7-Hexahydro-s-indacen-4-yl)carbamoyl)sulfamoyl)-N,1-dimethyl-N-((1-methyl-1H-imidazol-2-yl)methyl)-1H-pyrazole-5-carboxamide], the half-inhibitory concentration (IC50) in experiment [1] was 40 to 160 nM; in experiment [2] it was 800 to 1600 nM.
Turning to `CN(Cc1ccnn1C)C(=O)c1cc(S(=O)(=O)NC(=O)Nc2c3c(cc4c2CCC4)CCC3)nn1C` [Example 10, 3-(N-((1,2,3,5,6,7-Hexahydro-s-indacen-4-yl)carbamoyl)sulfamoyl)-N,1-dimethyl-N-((1-methyl-1H-pyrazol-5-yl)methyl)-1H-pyrazole-5-carboxamide], in experiment [1], the IC50 fell in the range of 640 to 2560 nM.
Take `CN(C(=O)c1cc(S(=O)(=O)NC(=O)Nc2c3c(cc4c2CCC4)CCC3)nn1C)c1nccs1` [Example 9, 3-(N-((1,2,3,5,6,7-Hexahydro-s-indacen-4-yl)carbamoyl)sulfamoyl)-N,1-dimethyl-N-(thiazol-2-yl)-1H-pyrazole-5-carboxamide]: the IC50 in experiment [1] lay in the range of 160 to 640 nM.
Same read-out and setting: in the case of `O=C(Nc1c2c(cc3c1CCC3)CCC2)NS(=O)(=O)c1ccn(Cc2ncccn2)n1` [Example 1, N-((1,2,3,5,6,7-Hexahydro-s-indacen-4-yl)carbamoyl)-1-(pyrimidin-2-ylmethyl)-1H-pyrazole-3-sulfonamide] it was 640 to 2560 nM; in that of `O=C(Nc1c2c(cc3c1CCC3)CCC2)NS(=O)(=O)c1ccn(-c2nccs2)n1` [Example 5, N-((1,2,3,5,6,7-Hexahydro-s-indacen-4-yl)carbamoyl)-1-(thiazol-2-yl)-1H-pyrazole-3-sulfonamide], 640 to 2560 nM.
For `Cn1ccnc1Cn1ccc(S(=O)(=O)NC(=O)Nc2c3c(cc4c2CCC4)CCC3)n1` [Example 3, N-((1,2,3,5,6,7-Hexahydro-s-indacen-4-yl)carbamoyl)-1-((1-methyl-1H-imidazol-2-yl)methyl)-H-pyrazole-3-sulfonamide], the IC50 in experiment [2] was 400 to 800 nM.
For `CN(Cc1nccs1)C(=O)c1cc(S(=O)(=O)NC(=O)Nc2c3c(cc4c2CCC4)CCC3)nn1C` [Example 7, 3-(N-((1,2,3,5,6,7-Hexahydro-s-indacen-4-yl)carbamoyl)sulfamoyl)-N,1-dimethyl-N-(thiazol-2-ylmethyl)-1H-pyrazole-5-carboxamide], the IC50 in experiment [1] was in the range of 160 to 640 nM; in experiment [2] it was 1600 to 3200 nM.
